Values after ≈ are worked out from the molar mass of the structure shown. One block for each molecule: values may come before it.
Experiments:
Type in all cases: functional
[1] = tested on: MCF7; experiment: Growth inhibition of human MCF7 cells after 48 hrs by sulforhodamine B assay; conditions: MCF7, 48 h
[2] = tested on: BXPC-3; experiment: Growth inhibition of human BxPC3 cells after 48 hrs by sulforhodamine B assay; conditions: BXPC-3, 48 h
[3] = tested on: DU-145; experiment: Growth inhibition of human DU145 cells after 48 hrs by sulforhodamine B assay; conditions: DU-145, 48 h
[4] = tested on: KM-20L2; experiment: Growth inhibition of human KM20L2 cells after 48 hrs by sulforhodamine B assay; conditions: KM-20L2, 48 h
[5] = tested on: SF-268; experiment: Growth inhibition of human SF268 cells after 48 hrs by sulforhodamine B assay; conditions: SF-268, 48 h
[6] = tested on: NCI-H460; experiment: Growth inhibition of human NCI-H460 cells after 48 hrs by sulforhodamine B assay; conditions: NCI-H460, 48 h

Compound: COc1ccc(/C=C\c2cc(OC)cc(OC)c2)cc1 [8Z-3,4',5-TRIMETHOXYSTILBENE]
GI50 [2]: 0.0034 µg/mL (≈ 0.0126 µM)
GI50 [3]: 0.0054 µg/mL (≈ 0.02 µM)
GI50 [5]: 0.0044 µg/mL (≈ 0.0163 µM)
GI50 [6]: 0.0028 µg/mL (≈ 0.0104 µM)

Compound: Oc1ccc(/C=C\c2cc(O)cc(O)c2)cc1 [CIS-RESVERATROL]
GI50 [4]: 22 µg/mL (≈ 96.4 µM)
GI50 [5]: 5 µg/mL (≈ 21.9 µM)

Compound: COc1ccc(/C=C\c2cc(OC)c(OC)c(OC)c2)cc1O [COMBRETASTATIN A4]
GI50 [2]: 0.39 µg/mL (≈ 1.23 µM)
GI50 [3]: 0.0008 µg/mL (≈ 0.00253 µM)
GI50 [4]: 0.34 µg/mL (≈ 1.07 µM)
GI50 [5]: > 0.01 µg/mL
GI50 [6]: 0.0006 µg/mL (≈ 0.0019 µM)

Compound: COc1ccc(/C=C/c2cc(OC)cc(OC)c2)cc1 [TRISMETHOXYRESVERATROL]
GI50 [2]: 0.35 µg/mL (≈ 1.29 µM)
GI50 [3]: 1.5 µg/mL (≈ 5.55 µM)
GI50 [5]: 0.56 µg/mL (≈ 2.07 µM)
GI50 [6]: 0.62 µg/mL (≈ 2.29 µM)

Second part, led by results:

GI50 [1]: 5.5 µg/mL (≈ 17.3 µM)
GI50 [2]: > 10 µg/mL
GI50 [3]: > 10 µg/mL
GI50 [6]: > 10 µg/mL
Compound: COc1cc(/C=C/c2ccc(OC)c(O)c2O)cc(OC)c1O
GI50 [4]: > 10 µg/mL
GI50 [5]: > 10 µg/mL

GI50 [1]: > 10 µg/mL
GI50 [2]: > 10 µg/mL
GI50 [3]: > 10 µg/mL
GI50 [6]: > 10 µg/mL
Compound: COc1cc(/C=C/c2ccc(OC)c(OP(=O)([O-])[O-])c2OP(=O)([O-])[O-])cc(OC)c1OP(=O)([O-])[O-].[Na+].[Na+].[Na+].[Na+].[Na+].[Na+]
GI50 [4]: > 10 µg/mL
GI50 [5]: > 10 µg/mL

GI50 [2]: 5 µg/mL (≈ 16.5 µM)
GI50 [3]: 6.3 µg/mL (≈ 20.8 µM)
GI50 [6]: 4.9 µg/mL (≈ 16.2 µM)
Compound: COc1ccc(/C=C/c2cc(OC)c(O)c(OC)c2)cc1O

GI50 [2]: 3.9 µg/mL (≈ 12.3 µM)
GI50 [3]: 0.037 µg/mL (≈ 0.117 µM)
GI50 [6]: 0.038 µg/mL (≈ 0.12 µM)
Compound: COc1ccc(/C=C/c2cc(OC)c(OC)c(OC)c2)cc1O [E-COMBRETASTATIN A-4]

Reference: ChEMBL document CHEMBL1154255 (2009)
